Test results published in patent publication US6737383B1, “Herbicidal oxadiazolidines” (priority 1999, dated 2004).

Tests used:
surinam grass = experiment: Test B pre/postemergence surinam grass; format: in vivo, Brachiaria decumbens
Summary of the method: (§1)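 Response is a visual 0-to-10 score relative to untreated plants, where 0 means no effect and 10 means complete control, taken twelve to sixteen days after application. Treatments went onto soil at planting and onto foliage of 1- to 4-leaf plants, using a surfactant-containing non-phytotoxic solvent.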

cocklebur = experiment: Test B pre/postemergence cocklebur; format: in vivo, Xanthium strumarium
Summary of the method: as §1

corn = experiment: Test B pre/postemergence corn; format: in vivo, Zea mays
Summary of the method: as §1

crabgrass = experiment: Test B pre/postemergence crabgrass; format: in vivo, Digitaria sanguinalis
Summary of the method: as §1

winter wheat [1] = experiment: Test E winter wheat; format: in vivo, Triticum aestivum; settings: Postemergence; for Wheat (winter) plant response rating: Rate 250 g/ha
Summary of the method: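 Compounds formulated in non-phytotoxic solvent mixture with surfactant; for postemergence, sprayed on plants at 1- to 4-leaf stage grown in 60:40 sandy loam/greenhouse potting mix. Kept in greenhouse ~21 to 28 days, then visually rated against untreated controls.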

blackgrass = experiment: Test E blackgrass; format: in vivo, Alopecurus myosuroides; settings: Preemergence; for Blackgrass plant response rating (0 to 100 scale): Rate 250 g/ha
green foxtail = experiment: Test E green foxtail; format: in vivo, Setaria viridis; settings: Preemergence; for Green foxtail plant response rating (0 to 100 scale): Rate 250 g/ha
Italian ryegrass = experiment: Test E Italian ryegrass; format: in vivo, Lolium multiflorum; settings: Preemergence; for I. Ryegrass plant response rating (0 to 100 scale): Rate 250 g/ha
winter wheat [2] = experiment: Test E winter wheat; format: in vivo, Triticum aestivum; settings: Preemergence; for Wheat (winter) plant response rating (0 to 100 scale): Rate 250 g/ha
wild oat = experiment: Test E wild oat; format: in vivo, Avena fatua; settings: Preemergence; for Wild oat plant response rating (0 to 100 scale): Rate 250 g/ha
winter barley = experiment: Test E winter barley; format: in vivo, Hordeum vulgare; settings: Preemergence; for Barley (winter) plant response rating (0 to 100 scale): Rate 250 g/ha
[3] = Preemergence, Rate 62 g/ha, scale of 0 to 10 where 0 is no effect and 10 is complete control
[4] = Preemergence, Rate 500 g/ha, scale of 0 to 10 where 0 is no effect and 10 is complete control
[5] = Rate 62 g/ha, Postemergence, scale of 0 to 10 where 0 is no effect and 10 is complete control
[6] = Rate 125 g/ha, Preemergence, scale of 0 to 10 where 0 is no effect and 10 is complete control
[7] = Rate 500 g/ha, Postemergence, scale 0 to 10, 0 no effect, 10 complete control
[8] = Preemergence, Rate 250 g/ha, scale of 0 to 10 where 0 is no effect and 10 is complete control
[9] = Rate 125 g/ha, Postemergence, scale 0 to 10
[10] = 0 to 100 scale where 0 is no effect and 100 is complete control
[11] = Rate 1000 g/ha, 0 to 100 scale, 0 no effect, 100 complete control
[12] = Postemergence, Rate 31 g/ha, visual rating, scale 0 to 10 (0 no effect, 10 complete control)
[13] = Preemergence, Rate 31 g/ha, visual rating, scale 0 to 10 (0 no effect, 10 complete control)
[14] = Rate 62 g/ha, Postemergence, scale 0 to 10 (0 no effect, 10 complete control)
[15] = Rate 125 g/ha, Postemergence, scale of 0 to 10 where 0 is no effect and 10 is complete control
[16] = Rate 250 g/ha, Postemergence, scale of 0 to 10 where 0 is no effect and 10 is complete control
[17] = Rate 125 g/ha, 0 to 100 scale (0 no effect, 100 complete control)

CC(C)N(C(=O)n1oc(=O)n([C@H](C)c2ccccc2)c1=O)c1ccc(F)cc1F [Compound 238]
30: Plant response rating, Barley (winter) (winter barley; [11])
85: Plant response rating, I. Ryegrass (Italian ryegrass; [11])
0: B. signalgrass plant response rating (surinam grass; [3]) | B. signalgrass plant response rating (surinam grass; Preemergence, Rate 250 g/ha, scale 0 to 10, 0 is no effect, 10 is complete control) | Plant response rating, B. signalgrass (surinam grass; [4]) | B. signalgrass plant response rating (surinam grass; [5]) | B. signalgrass plant response rating (surinam grass; Rate 125 g/ha, Postemergence, scale 0 (no effect) to 10 (complete control)) | B. signalgrass plant response rating (surinam grass; [6]) | Plant response rating (0 to 10; 0 is no effect, 10 is complete control), B. signalgrass (surinam grass; Rate 250 g/ha, Postemergence) | B. signalgrass plant response rating (surinam grass; [7]) | Cocklebur plant response rating (cocklebur; [3]) | Cocklebur plant response rating (cocklebur; [8]) | Cocklebur plant response rating (cocklebur; [5]) | Cocklebur plant response rating (cocklebur; [9]) | Cocklebur plant response rating (cocklebur; [6]) | Plant response rating (0 to 10; 0 is no effect, 10 is complete control), Cocklebur (cocklebur; Rate 250 g/ha, Postemergence) | Cocklebur plant response rating (cocklebur; [7]) | Corn plant response rating (corn; [3]) | Corn plant response rating (corn; [8]) | Plant response rating, Corn (corn; [4]) | Corn plant response rating (corn; [5]) | Corn plant response rating (corn; [9]) | Corn plant response rating (corn; [6]) | Plant response rating (0 to 10; 0 is no effect, 10 is complete control), Corn (corn; Rate 250 g/ha, Postemergence) | Corn plant response rating (corn; [7]) | Crabgrass plant response rating (crabgrass; [5])
40: Plant response rating, Wheat (winter) (winter wheat [1]; Rate 1000 g/ha, 0 to 100 scale where 0 is no effect and 100 is complete control) | Wheat (winter) plant response rating (0 to 100 scale) (winter wheat [2]) | Barley (winter) plant response rating (0 to 100 scale) (winter barley)
10: Crabgrass plant response rating (crabgrass; [8]) | Plant response rating, Crabgrass (crabgrass; [4])
60: Wheat (winter) plant response rating (winter wheat [1]; [10])
100: Plant response rating, Green foxtail (green foxtail; [11])
50: Blackgrass plant response rating (0 to 100 scale) (blackgrass) | I. Ryegrass plant response rating (0 to 100 scale) (Italian ryegrass) | Plant response rating, Wheat (winter) (winter wheat [2]; [11]) | Wild oat plant response rating (0 to 100 scale) (wild oat) | Plant response rating, Wild oat (wild oat; [11])
2: Crabgrass plant response rating (crabgrass; [3]) | Plant response rating (0 to 10; 0 is no effect, 10 is complete control), Crabgrass (crabgrass; Rate 250 g/ha, Postemergence)
5: Crabgrass plant response rating (crabgrass; [7])
6: Crabgrass plant response rating (crabgrass; [6])
70: Green foxtail plant response rating (0 to 100 scale) (green foxtail)
75: Plant response rating, Blackgrass (blackgrass; [11])

CCOCn1c(=O)on(C(=O)N(c2ccc(F)cc2)C(C)C)c1=O [Compound 295]
2: Crabgrass plant response rating (crabgrass; [13]) | Crabgrass plant response rating (crabgrass; [3])
3: B. signalgrass plant response rating (surinam grass; [13]) | Crabgrass plant response rating (crabgrass; [15])
20: Plant response rating, Barley (winter) (winter barley; [17])
60: Wheat (winter) plant response rating (0 to 100 scale) (winter wheat [2])
30: Plant response rating, Wheat (winter) (winter wheat [1]; Rate 125 g/ha, 0 to 100 scale, 0 is no effect, 100 is complete control) | Barley (winter) plant response rating (0 to 100 scale) (winter barley)
40: Plant response rating, I. Ryegrass (Italian ryegrass; [17]) | Plant response rating, Wheat (winter) (winter wheat [2]; [17])
0: B. signalgrass plant response rating (surinam grass; [12]) | B. signalgrass plant response rating (surinam grass; [14]) | B. signalgrass plant response rating (surinam grass; [15]) | Cocklebur plant response rating (cocklebur; [12]) | Cocklebur plant response rating (cocklebur; [13]) | Cocklebur plant response rating (cocklebur; [3]) | Cocklebur plant response rating (cocklebur; [8]) | Cocklebur plant response rating (cocklebur; [14]) | Cocklebur plant response rating (cocklebur; [15]) | Cocklebur plant response rating (cocklebur; [6]) | Plant response rating, Cocklebur (cocklebur; [16]) | Corn plant response rating (corn; [12]) | Corn plant response rating (corn; [13]) | Corn plant response rating (corn; [3]) | Corn plant response rating (corn; [8]) | Corn plant response rating (corn; [14]) | Corn plant response rating (corn; [15]) | Corn plant response rating (corn; [6]) | Plant response rating, Corn (corn; [16]) | Crabgrass plant response rating (crabgrass; [12]) | Crabgrass plant response rating (crabgrass; [14]) | Plant response rating, Blackgrass (blackgrass; [17]) | Plant response rating, Wild oat (wild oat; [17])
50: Wheat (winter) plant response rating (winter wheat [1]; [10]) | Plant response rating, Green foxtail (green foxtail; [17]) | I. Ryegrass plant response rating (0 to 100 scale) (Italian ryegrass)
100: Green foxtail plant response rating (0 to 100 scale) (green foxtail)
7: Crabgrass plant response rating (crabgrass; [8]) | Crabgrass plant response rating (crabgrass; [6])
6: B. signalgrass plant response rating (surinam grass; [3]) | B. signalgrass plant response rating (surinam grass; [6])
10: Blackgrass plant response rating (0 to 100 scale) (blackgrass) | Wild oat plant response rating (0 to 100 scale) (wild oat)
8: B. signalgrass plant response rating (surinam grass; [8]) | Plant response rating, Crabgrass (crabgrass; [16])
5: Plant response rating, B. signalgrass (surinam grass; [16])
